Source: publication PMC12257540, “From Inhibitors to PET: SAR-Based Development of [^18F]SK60 for mIDH1 Imaging” (Journal of Medicinal Chemistry, 2025)

Experiments:
[1] = test system: IDH1R132H-U251 cells (target-positive) and IDH1-U251 cells (target-negative); assay: Real-time radioligand binding (LigandTracer) to live U251 cells; design: species or system Human; conditions: room temperature, medium without or with 5 % BSA
Description: Real-time radioligand binding
Real-time radioligand binding using LigandTracer®
The LigandTracer (LigandTracer Yellow, Ridgeview Instruments AB, Uppsala, Sweden) system allows assessment of binding kinetics (association rate constant ka and dissociation rate constant kd) and therefore dissociation constant (KD).
Briefly, target-positive/-negative cells are seeded to different quadrants of a petri dish (Thermo Scientific Nunclon Delta #150350). Here, approximately 5x10^4 target-positive cells (IDH1R132H-U251 cells) and target-negative cells (IDH1-U251 cells) were seeded in a ~20 mm round spot (0.5 mL of a solution of 1x10^5 cells/mL), three days before the experiment. […]
The culture medium is removed and replaced with 3 mL CO2-independent medium (Gibco #18045088, ThermoFisher Germany) without or with bovine serum albumin (BSA) (5 %; #3737.3, Carl Roth GmbH, Karlsruhe, Germany). In the instrument, the dish rotates on an inclined base, where cells in medium (3 mL) are located on one side, while radioactivity is detected on the opposite side. This allows continuous measurements of two or more alternating parts of the dish for bound radioactivity (e.g. target-positive) against background (e.g. no cells) or target-negative cells. […]
Data was acquired in decay-corrected counts per second (CPS) and subsequently analyzed using TraceDrawer (1.9.2, Ridgeview Instruments AB, Uppsala, Sweden). […]

[2] = test system: IDH1-U251 cells; assay: In vitro cell uptake of [18F]SK60 in IDH1-U251 cells; type: cell-based, Human; conditions: 240 min incubation
Description: Human U251 glioblastoma cells, stably transfected and overexpressing either wild-type IDH1 (IDH1-U251) or IDH1R132H (IDH1R132H–U251), were obtained from Jaqueline Kessler and Dirk Vordermark (Department of Radiotherapy, Martin Luther University Halle-Wittenberg, Halle/Saale, Germany). Cells were grown in RPMI 1640 medium (10% FCS), supplemented with puromycin, to ensure the cultivation of transfected cells only.
The IDH1-U251 and IDH1R132H–U251 cells were seeded at 4,00,000 cells/mL in a 24-well cell culture plate 1 day before the experiment. The medium was replaced by 400 μL/well, and 4 μL of a 100-x stock solution of the respective inhibitor in 10% DMSO or vehicle (10% DMSO) was added about 2 h before the experiment. The experiment was started with the addition of 100 μL of [ ^ 18 F]-SK60 (0.477 ± 0.002 MBq/mL; 4.86 ± 0.33 nM) diluted in cell culture medium per well, and the well plates were incubated in a humidified-air atmosphere incubator containing 5% CO2 at 37 °C for various times. The incubation was stopped by aspiration of the supernatant and washing the cell layers twice with prechilled PBS (500 μL/well). […] The concentrations of surface-bound and internalized activities per well were calculated as a percentage of the applied dose per well and normalized to the protein concentration per well (% AD/μg protein). […]

[3] = Ex vivo biodistribution in naïve mice; design: species or system CD-1 mice; conditions: i.v.
Description: [ ^ 18 F]-SK60 (151 ± 37.0 kBq) diluted in 200 μL of sterile isotonic saline was injected into the tail vein of restrained, awake mice. The animals were anesthetized with isoflurane at 5 (n = 2), 15 (n = 1–2), 30 (n = 3), and 60 (n = 3) min after injection; blood was collected from the retro-orbital plexus with a heparinized glass Pasteur pipet, and the anesthetized animal was sacrificed by cervical dislocation. Blood plasma was obtained by centrifugation of the whole blood (8000 rpm, 4 °C, 2 min). […] From the measured data, the uptake of the activity in the different tissues and organs at the different time points p.i. was calculated as a percentage of injected dose per gram of tissue (% ID/g) and standardized uptake values (SUV).

[4] = logD7.4 by shake-flask method (n-octanol/PBS); type: physicochemical; conditions: n-octanol/PBS pH 7.4, n = 4
Description: The logD 7.4 value of [ ^ 18 F]-SK60 was experimentally determined by the conventional shake-flask method using n-octanol and PBS as the partition system.
The two phases were presaturated with each other. A solution of the radiotracer (10 μL, 1.1 MBq) was added to a 15 mL plastic centrifuge tube containing n-octanol (3 mL) and PBS (3 mL). The tube was vortexed for 3 min and centrifuged at 3500 rpm for 5 min (Anke TDL80–2B, China). […] The logD 7.4 was determined as the ratio of cpm/mL of the n-octanol layer to that of the buffer layer. Samples from the n-octanol layer were redistributed until consistent distribution coefficient values were obtained. The measurement was carried out in triplicate and repeated three times.

Cc1cccc(NC(=O)c2nn(Cc3ccc([18F])cc3)c3c2CN(C(=O)c2ccc[nH]2)CC3(C)C)c1 [[18F]SK60]
real-time radioligand binding to live cells [1]: Reliable binding of [18F]SK60 could not be observed
internalized radioligand [2]: 0.074 ± 0.023 % AD/μg protein
surface-bound radioligand [2]: 0.052 ± 0.029 % AD/μg protein
activity in kidneys and bladder ([3]; kidneys and bladder, 60 min p.i.): < 1 SUVmean
accumulation in liver ([3]; liver, 5 min p.i.): ~7 SUVmean
accumulation in small intestine ([3]; small intestine, 60 min p.i.): ~13 SUVmean
logD [4]: 2.3 ± 0.5
